In US20230242936A1, “DUAL PROMOTER SYSTEMS” (Seattle Children's Hospital (dba Seattle Children's …, priority 2020, published 2023):

Tested on: CA-STAT5aER
Experiment: Logic gate system with CA-STAT5aER payload, target reporter gene expression
Assay type: cell-based
Details: host cells co-cultured with CD19+ cells and treated with tamoxifen
Description: A logic gate system similar to the system depicted in FIG. 9 and FIG. 10 are examined. Dual promoter nucleic acids are prepared and introduced into host cells. The nucleic acids include an inducible iSynPro promoter and either a constitutively activated signal transducer and activator of transcription 5a (CA-STAT5a) protein (FIG. 9), a fusion protein of CA-STAT5a and of an estrogen receptor (CA-STAT5aER) (FIG. 10), or an alternative fusion protein of CA-STAT5a and of an estrogen receptor (CA-STAT5bER). Host cells are stimulated with Raji cells (CD19+), or PMA/ionomycin and are analyzed by FACS analysis for GFP and EGFRt expression.

SMILES: CC/C(=C(\c1ccccc1)c1ccc(OCCN(C)C)cc1)c1ccccc1 [tamoxifen, 2-(4((1Z)-1,2-diphenyl-1-butenyl)phenoxy)-N,N-dimethyl-ethanamine]
- target reporter gene expression: express target reporter gene
